Test results reported in US9085557B2, “Quinolylpiperazino substituted thiolactone compounds and process for the preparation thereof” (Council of Scientific and Industrial Research, priority 2010, dated 2015).
In brackets after ≈: the same amount, converted by molar mass.

Experiments:
[1] = tested on: M. tuberculosis H37Rv (ATCC 27294); experiment: MIC determination by broth dilution against M. tuberculosis H37Rv; format: cell-based, Mycobacterium tuberculosis; conditions: for in vitro activity (words): M. tuberculosis H37Rv / sensitive isolates
[2] = tested on: M. tuberculosis XDR-1 (XDR- strain); experiment: microbe, parasite or virus in culture; format: cell-based, Mycobacterium tuberculosis; conditions: for in vitro activity (words): XDR clinical isolates
[3] = tested on: M. tuberculosis -617 (MDR- strain); experiment: microbe, parasite or virus in culture; format: cell-based, Mycobacterium tuberculosis; conditions: for in vitro activity (words): MDR clinical isolates
[4] = tested on: AML-12 cells; experiment: Cytotoxicity assay (MTT) on cell line AML-12; format: cell-based
Procedure: The study was carried out using AML-12 cells line (ATCC-USA). Cells were grown in Dulbecco's Modified Eagle's Medium (DMEM) containing 10% fetal calf serum (FCS) and supplemented with 100 units/ml penicillin, 100 μg/ml streptomycin, 0.005 mg/ml insulin, 0.005 mg/ml transferrin, 5 ng/ml selenium, and 40 ng/ml dexamethasone, in a humidified atmosphere in 5% CO2 at 37° C., and were sub-cultured at 1:5 ratio once a week.
Cells were plated at a density of 3×10^4 cells/cm^2 and maintained in culture medium for 12 h after trypsinization. Cells were seeded onto 96-well plates and FCS was reduced to 5% for the experiment. Stock solutions of compound 3f were prepared fresh to avoid oxidation. Cells were incubated with the compounds (2-100 μg/ml) for 24 hrs.
After the completion of treatment, the medium was removed and cell viability was evaluated by assaying for the ability of functional mitochondria to catalyze the reduction of 3-(4,5-dimethylthiazol-2-yl)-2,5-diphenyltetrazolium bromide (MTT) to form formazan salt by mitochondrial dehydrogenases, and determined by Elisa reader at 565 nm (Multiskan Spectrum; Thermo Electron Corporation, USA). Percentage cytotoxicity was calculated with respect to the untreated cells.

[5] = tested on: M. tuberculosis H37Rv; experiment: In vivo efficacy in murine model of M. tuberculosis H37Rv infection; set-up: species or system mice (BALB/c)
Procedure: The Compound 3f used in this study ([…]). The compound 3f was tested in vivo at 25 mg/kg. Rifampicin at 20 mg/kg was also tested as positive control. For in vivo studies compound and rifampicin was dissolved in pure DMSO and formulation was prepared 50% PEG in water for oral administration. The final concentration of DMSO was less than 0.1% v/v.
The institutional animal Ethics committee of the Indian Institute of Integrative Medicine (CSIR, Jammu) approved all experimental protocols with animals and the use of animals. The animals were bred and maintained under standard husbandry conditions; viz. humidity, temperature (25±2° C.). 8-week-old female (BALB/c) mice 20-22 gm by weight were used for the efficacy studies. Animals were allowed 1 week of acclimation before intake into experimental studies. Feed and water were given ad libitum.
Infection of M. tuberculosis:
M. tuberculosis (H37Rv) for infection was grown by the culturing of bacteria from Lowenstein-Jensen slant in Middlebrooke 7H9 medium on a rotary shaker for 10 days at 37° C. […] The mice were sacrificed after week post infection (early control), and bacterial numbers in the lungs were determined by macerating the organs (lung) and plating serial tenfold serial dilution on Middlebrook 7H10 agar plates in triplicates. […]
Eight infected mice were sacrificed from the control group 7 day after the infection (before the initiation of treatment) to obtain the initial CFU load of M. tuberculosis H37Rv at the initiation of treatment. […] Viable bacteria were quantitated by plating 10-fold serial dilutions in duplicates on Middlebrook, 7H10 agar supplemented with 10% OADC (oleic acid albumin dextrose catalase, Becton Dickinson, Sparks, Md.) and incubated at 37° C. in 5% CO2 for 4-6 weeks. CFU per organ sample was counted and expressed as log10 CFU per organ. CFU during in-vivo studies were determined on Middlebrook 7H10 plates supplement with 10% OADC containing Vancomycin 10 μg/ml, Amphoterecin 10 μg/ml, Nalidaxic acid 25 μg/ml. […]

Q: For CC1=C(OCCCCCCCCCCCCN2CCN(c3ccnc4cc(C(F)(F)F)ccc34)CC2)C(C)SC1=O (stereo not drawn) [Compound 3f, 3,5-dimethyl-4-[(12-4-[7-(trifluoromethyl)-4-quinolyl]piperazinododecyl)oxy]-5H-thiophen-2-one], which “in vitro activity (words)” value ([1]; listed as Compound 3f) is on record?
A: active

Q: What about the “in vitro activity (words)” value ([1]; listed as compound 3f) of the same compound?
A: exhibits in vitro activity

Q: And the MIC ([1]; M. tuberculosis H37Rv, broth dilution, 3 weeks at 37° C., read visually (no turbidity))?
A: 0.5 µg/mL (≈ 0.845 µM)

Q: What about the MIC ([2]; M. tuberculosis XDR-1 clinical isolate, broth dilution, 3 weeks) of the same compound?
A: 0.5 µg/mL (≈ 0.845 µM)

Q: What about the “in vitro activity (words)” value ([2]; listed as Compound 3f) of the same compound?
A: active

Q: What about the “in vitro activity (words)” value ([2]; listed as compound 3f) of the same compound?
A: exhibits in vitro activity

Q: What about the MIC ([3]; M. tuberculosis 617 MDR clinical isolate, broth dilution, 3 weeks) of the same compound?
A: 0.5 µg/mL (≈ 0.845 µM)

Q: What about the “in vitro activity (words)” value ([3]; listed as Compound 3f) of the same compound?
A: active

Q: And the “in vitro activity (words)” value ([3]; listed as compound 3f)?
A: exhibits in vitro activity

Q: What about the “IC50 (extrapolate), cytotoxicity on AML-12” value [4] of the same compound?
A: IC50 > 433 μg/ml (extrapolate)

Q: What about the “type of in vivo activity (log CFU in lungs versus early control)” value ([5]; 25 mg/kg oral, 4 weeks) of the same compound?
A: bacteriostatic activity

Q: And the “Log10 CFU/left Lung (mean ± SD)” value ([5]; BALB/c mice, intranasal infection, treatment from 1 week post infection, PO once daily for 4 weeks, RIF 20 mg/kg, 3f 25 mg/kg)?
A: 6.2 ± 0.34 Log10 CFU/left Lung
